# Assay results reported in patent publication US20090286802A1, “High Dose Folic Acid Compositions for Vascular Dysfunction” (priority 2005, published 2009).
# Several values for one entry are separate records, joined by “and”; a condition that tells them apart may be missing. Identical values can stand only once.
# Key:
# [1] = tested on: patients with ischemic heart disease; test: Hemodynamic variables (HR, RPP, blood pressure) at rest and during adenosine, double-blind placebo-controlled crossover study; assay type: in vivo, human; details: for HR / DBP (diastolic blood pressure) / MAP (mean arterial blood pressure) / RPP (rate pressure product, SAP × HR) / SAP (systolic blood pressure): folate 30 mg oral, mean ± SD
# Experimental: (§1) 14 patients with ischemic heart disease, age 62±12yr. (mean±SD), were enrolled in a double-blind, placebo controlled crossover trial. Basal and adenosine-stimulated myocardial blood flow (MBF) were determined by PET and myocardial flow reserve was calculated. Each patient was studied after ingestion of placebo and after ingestion of 30 mg folic acid. Myocardial zones were prospectively defined physiologically as “NORMAL” vs “ABNORMAL” based on MBF response to Ado 140 (NORMAL=MBF>1.65 ml/min/g). ABNORMAL and NORMAL zones were analyzed separately in a patient based analysis.
# Patient Population: Adult male and female patients with coronary artery disease and normal serum homocysteine concentration (HCY<12 μM) were recruited from the greater Boston area. Coronary artery disease was defined as the presence of a >50% stenosis in at least one coronary artery identified by coronary arteriography within the last 5 years. Exclusion criteria included: inability to maintain a stable medical regimen during the study period, concurrent use of folic acid, or myocardial infarction or coronary intervention within the proceeding 3 months. The study protocol was approved by the local Human Research Committee and informed consent was obtained from each subject.
# (§2) Study Drug Administration. Subjects were enrolled in a double-blinded, placebo-controlled, crossover study during which folate syrup (30 mg) or similar tasting placebo syrup was administered orally in two divided doses, 10-12 hours and 1 hour prior to MBF measurements. […] Folate and placebo were administered at least one week apart, in random order, and in a double-blinded manner.
# (§3) Myocardial Blood Flow Measurements. Vasoactive medications were withheld for 3-5 half-lives, and subjects were asked to avoid caffeinated beverages for 24 h before blood flow measurements. MBF was assessed with PET (GE Medical Systems Scanditronix PC4096), approximately 1-hr after ingestion of the second dose of the study drug. PET measurements of MBF (^13N-ammonia method) were performed at rest and during the infusion of two doses of adenosine (70 and 140 mcg/kg/min), using a previously described method (Huggins, G. S., et al., Circulation 1998; 98:1291-6).
# Statistical Analysis. Data are expressed as mean±SD. A repeated measures ANOVA was performed, (Statview v 4.0, Abacus Concepts), with terms for the order of folate vs. placebo administration, patient, and observations (blood pressure, MBF and G) for the three repeated measurements (adenosine 0, 70, and 140). To control for multiple testing, prospectively defined pair-wise t-tests comparing folate to placebo at each of the three adenosine doses were performed only if there was a significant main effect for folate or a significant interaction of folate with adenosine in the ANOVA analysis. Values of P<0.05 were considered significant.
# [2] = tested on: patients with ischemic heart disease; test: Myocardial blood flow (MBF) by PET (13N-ammonia) at rest and during adenosine, folate crossover study; assay type: in vivo, human; details: for effect on myocardial blood flow in NORMAL regions: folate vs. placebo
# Experimental: as §1, §2, §3
# PET Image Analysis: Three short axis rings corresponding to the proximal, middle and distal thirds of the left ventricle were constructed for each K1 scan and MBF was measured within 24 standard areas of interest as described previously (Huggins, G. S., et al., Circulation 1998; 98:1291-6). Data analysis was performed without knowledge of treatment order. To determine the variability of the MBF measurement, two readers independently assessed adenosine-stimulated MBF in 120 segments in 5 subjects and the difference between and within readers was calculated. The mean (±SD) intra-, and inter-observer difference was 0.03±0.10 and 0.03±0.17 ml/min/gm, respectively.
# Prospective Definition of Myocardial Zones. MBF in regions supplied by stenotic conduit vessels, which were expected to have abnormal dilator capacity, were prospectively examined separately from regions with normal dilator capacity. […] Accordingly, myocardial zones were defined physiologically as “NORMAL” vs. “ABNORMAL” based on MBF response to Ado 140 during the placebo condition. Myocardial zones with MBF with Ado 140 of <1.65 ml/min/g during placebo condition were defined as ABNORMAL. The corresponding myocardial regions were identified during the folate condition, and were labeled ABNORMAL regardless of their MBF during the folate condition. Values for ABNORMAL MBF were combined and averaged to obtain a single value of ABNORMAL blood flow for each patient at each condition, (placebo and folic acid) for each scan acquisition (rest, adenosine 70, or adenosine 140). A patient-based analysis of MBF was performed.
# Dilator reserve for both NORMAL and ABNORMAL zones was defined as the difference between peak MBF and rest MBF. Peak MBF was defined as the higher of the two average MBF values obtained during adenosine (i.e, the greater of the average MBF obtained during adenosine 70 vs. adenosine 140 dose). This was done, since in patients with IHD, coronary “steal” may occur (Holmvang, G., et al., Circulation 1999; 99:2510-6). and so cause underestimation of dilator reserve in ABNORMAL regions.
# [3] = oral administration; cited from earlier work
# [4] = tested on: patients with stable chronic ischemic heart disease; test: Myocardial blood flow by PET (13N-ammonia), sildenafil crossover study; assay type: in vivo, human; details: for Myocardial Blood Flow: abnormal zones, sildenafil 100 mg given ~2-3 hrs before, mean ± SD
# Experimental: The effects of sildenafil on myocardial blood flow were assessed. The chemical name for sildenafil is 5-[2-ethoxy-5(-4-methyl piperazine-1-ylsulfonyl)phenyl]-1-methyl-3-propyl-1,6-dihydro-7H-pyrazolo[4,3-d]pyrimidin-7-one. A study design similar to that used to test the effects of folate as described herein was used. In brief, myocardial blood flow (MBF) was measured in 14 patients with stable chronic ischemic heart disease using positron emission tomography with ^13N-ammonia. Patients were studied in double blind, placebo control, cross-over design with 100 mg sildenafil (or placebo) given ˜2-3 hrs prior to measurements of hemodynamics and myocardial blood flow at rest and during administration of adenosine at (140 μg/kg/min). Sildenafil improved myocardial blood flow in abnormal zones (Table 4). Also shown are data of the effect of folate (30 mg) on myocardial blood flow.
# [5] = Ado 70, folate 30 mg oral, mean ± SD
# [6] = Ado 140, folate 30 mg oral, mean ± SD
# [7] = Peak, folate 30 mg oral, mean ± SD
# [8] = Rest, folate 30 mg oral, mean ± SD
# [9] = folate 30 mg oral, mean ± SD, listed as folate
structure (smiles),measurement,setting,value
"Nc1nc2ncc(CNc3ccc(C(=O)N[C@@H](CCC(=O)O)C(=O)O)cc3)nc2c(=O)[nH]1 [Folate, N[4-[[(2-amino-1,4-dihydro-4-oxo-6-pteridinyl)methyl]amino]benzoyl]-L-glutamic acid]",HR,[1]; Ado 70 (adenosine 70 μg/kg/min),70 ± 14 bpm
same,DBP (diastolic blood pressure),[1]; Ado 70,68 ± 11 mmHg
same,MAP (mean arterial blood pressure),[1]; Ado 70,95 ± 13 mmHg
same,"RPP (rate pressure product, SAP × HR)",[1]; Ado 70,8604 ± 2484 mmHg × bpm
same,SAP (systolic blood pressure),[1]; Ado 70,123 ± 18 mmHg
same,HR,[1]; Ado 140 (adenosine 140 μg/kg/min),82 ± 15 bpm
same,DBP (diastolic blood pressure),[1]; Ado 140,69 ± 10 mmHg
same,MAP (mean arterial blood pressure),[1]; Ado 140,95 ± 15 mmHg
same,"RPP (rate pressure product, SAP × HR)",[1]; Ado 140,9998 ± 3066 mmHg × bpm
same,SAP (systolic blood pressure),[1]; Ado 140,120 ± 21 mmHg
same,DBP (diastolic blood pressure),[1]; Rest,70 ± 9 mmHg
same,HR,[1]; Rest,61 ± 8 bpm
same,MAP (mean arterial blood pressure),[1]; Rest,96±11 mmHg and 96±2 mmHg
same,"RPP (rate pressure product, SAP × HR)",[1]; Rest,7483 ± 1798 mmHg × bpm
same,SAP (systolic blood pressure),[1]; Rest,121 ± 15 mmHg
same,reduction in diastolic blood pressure,[1]; folate 30 mg vs. placebo,5 mm Hg
same,change in HR,[1]; folate vs. placebo,no significant change
same,change in RPP,[1]; folate vs. placebo,no significant change
same,"effect on systolic, diastolic and mean arterial blood pressures","[1]; folate vs. placebo, P<0.01 ANOVA",significant reduction
same,patients with significant reduction in blood pressure after high-dose folate,[1]; without changes in homocysteine concentration,11/14
same,"Myocardial Blood Flow, ABNORMAL zones",[2]; [5],1.60 ± 1.15 ml/min/gm
same,"Myocardial Blood Flow, NORMAL zones",[2]; [5],2.01 ± 0.88 ml/min/gm
same,Ratio ABN:WNL (ABNORMAL/NORMAL zone MBF),[2]; [5],0.84 ± 0.37
same,"Myocardial Blood Flow, ABNORMAL zones",[2]; [6],1.76 ± 0.75 ml/min/gm
same,"Myocardial Blood Flow, NORMAL zones",[2]; [6],2.72 ± 0.74 ml/min/gm
same,Ratio ABN:WNL (ABNORMAL/NORMAL zone MBF),[2]; [6],0.67 ± 0.21
same,"Myocardial Blood Flow, ABNORMAL zones","[2]; Peak (adenosine-stimulated), folate 30 mg oral, mean ± SD",2.16±1.01 ml/min/gm
same,"Myocardial Blood Flow, ABNORMAL zones","[2]; Peak (adenosine-stimulated), folate 30 mg oral, mean ± SD, listed as folic acid",2.16±1.01 ml/min/gm
same,"Myocardial Blood Flow, NORMAL zones",[2]; [7],2.86 ± 0.67 ml/min/gm
same,Ratio ABN:WNL (ABNORMAL/NORMAL zone MBF),[2]; [7],0.75±0.24
same,"Myocardial Blood Flow, ABNORMAL zones",[2]; [8],0.74 ± 0.27 ml/min/gm
same,"Myocardial Blood Flow, NORMAL zones",[2]; [8],0.81 ± 0.19 ml/min/gm
same,Ratio ABN:WNL (ABNORMAL/NORMAL zone MBF),[2]; [8],0.95 ± 0.17
same,patients in whom flow reserve increased in ABNORMAL zones relative to NORMAL zones,[2]; after folate,83 % of patients
same,patients in whom peak MBF increased in ABNORMAL zones relative to NORMAL zones,[2]; after folate,85 % of patients
same,"Dilator Reserve (peak MBF minus rest MBF), ABNORMAL","[2]; folate 30 mg oral, mean ± SD",1.41 ± 1.08 ml/min/gm
same,"Dilator Reserve (peak MBF minus rest MBF), NORMAL","[2]; folate 30 mg oral, mean ± SD",2.12±0.69 ml/min/gm
same,"Dilator Reserve, Ratio ABN:WNL","[2]; folate 30 mg oral, mean ± SD",0.63 ± 0.36
same,"Dilator Reserve (peak MBF minus rest MBF), ABNORMAL",[2]; [9],1.41±1.08 ml/min/gm
same,"Dilator Reserve (peak MBF minus rest MBF), NORMAL",[2]; [9],2.12±0.69 ml/min/gm
same,increase in dilator reserve in ABNORMAL segments,[2]; folate 30 mg vs. placebo,83%
same,increase in peak MBF in ABNORMAL zones,[2]; folate 30 mg vs. placebo,49%
same,effect on myocardial blood flow in NORMAL regions,[2],did not affect
same,effect on myocardial blood flow in NORMAL regions,[2]; listed as folic acid,did not change
same,patients in whom ABNORMAL zone MBF improved after folate,[2]; of 13 patients with abnormal zones,10 patients
same,time to peak blood levels after administration,[3],30 to 60 min
"CCCc1nn(C)c2c(=O)[nH]c(-c3cc(S(=O)(=O)N4CCN(C)CC4)ccc3OCC)nc12 [Sildenafil, 5-[2-ethoxy-5(-4-methylpiperazine-1-ylsulfonyl)phenyl]-1-methyl-3-propyl-1,6-dihydro-7H-pyrazolo[4,3-d]pyrimidin-7-one]",Myocardial Blood Flow,[4]; Ado 140,1.58 ± 0.55 ml/min/gm
same,Myocardial Blood Flow,[4]; Rest,0.64 ± 0.20 ml/min/gm
same,effect on myocardial blood flow in abnormal zones,[4]; sildenafil 100 mg vs. placebo,improved
